Assay results: US20260015350A1, “AZAQUINAZOLINE PAN-KRAS INHIBITORS” (Mirati Therapeutics, Inc., priority 2022, published 2026)

Legend:
[1] = tested on: KRas-mediated phosphorylation of ERK in H727 cells; experiment: Inhibition of KRas-mediated phosphorylation of ERK (Cisbio HTRF pERK), H727 cells; assay type: cell-based; conditions: Homo sapiens; for IC50: NCI-H727, H727 cells, HTRF pERK; for inhibition at 0.1 µM: NCI-H727, 3 h, single point, 100 nM compound, 3 hrs, H727 cells
Outline: (§1)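 Min control wells contained 0.2 uM Trametinib, while test compounds ran as 10 doses (3-fold, top 10 uM; 0.8% DMSO final) on cells for 3 hrs. After 40 mins lysis at 4° C, lysates were probed with HTRF antibodies for 2 hrs at room temperature.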

[2] = tested on: KRas-mediated phosphorylation of ERK in H358 cells; experiment: Inhibition of KRas-mediated phosphorylation of ERK (Cisbio HTRF pERK), H358 cells; assay type: cell-based; conditions: Homo sapiens; for inhibition at 0.1 µM: NCI-H358, 3 h, single point, 100 nM compound, 3 hrs; for IC50: NCI-H358, HTRF pERK
Method: (§2) Inhibition of KRas Phosphorylation of ERK (HTRF) by Exemplary Compounds of Formula (I) Cisbio HTRF Advanced PERK Assay Catalog #64[…] […] Add 10 mL of media to stop trypsinizing. Pipette the cells into a conical bottom 50 mL centrifuge tube and centrifuge 5 min×1000 rpm. […] Re-suspend the cell pellet in media, take a cell count, and then adjust the cell density using fresh media. […] Seed 6,000 cells into cell culture plate with 50 μL media. […] Use Tecan to complete the compound addition. Compounds start from 10 uM top, 3-fold dilution, and 10 doses. The final DMSO concentration is 0.8%. Dispensed 0.2 uM Trametinib as Min control. […] Incubate cell plate for 3 hrs in the incubator. […] Dilute 1 volume of 4× lysis buffer with 3 volumes of deionized water. […] Keep lysis buffer on the ice. […] At the end of the compound treatment, flick-off the media. […] Add 35 μL of lysis buffer per well using a Multidrop Combi. Then place on a plate agitator shaking at 300 rpm at 4° C. for 40 mins. […] Make up the HTRF antibody buffer. For each assay plate, mix 50 μL of d2-conjugate antibody with 950 μL of detection buffer. Similarly, mix 50 μL of Cryptate antibody with 950 μL of detection buffer. Then mix the two diluted antibodies together. […] Dispense 3.4 μL the antibody buffer to wells of an empty assay plate. Seal the plate and centrifuge plate 30 sec×1000 rpm. […] At the end of the 4° C. lysis, centrifuge the lysate plates 3 mins×1500 rpm. […] Use the Bravo to transfer 13.6 μL of lysate from cell culture plate to assay plate. Then incubate assay plate for 2 hrs at room temperature. 8. At the end of incubation, read plate on the Envision after centrifuging plate 30 sec×1000 rpm.

KRas^G12R = biological target: T1, KRas^G12R (Homo sapiens, UniProt P01116, G12R); experiment: KRas binding assay (TR-FRET tracer displacement), KRas G12R
T1 construct: Biotinylated KRas (corresponding to amino acids 1-169, produced at Accelegan Inc.); biotin (biotinylated); purchased Accelegan Inc

[3] = tested on: KRas-mediated phosphorylation of ERK in A549 cells; experiment: Inhibition of KRas-mediated phosphorylation of ERK (Cisbio HTRF pERK), A549 cells; assay type: cell-based; conditions: Homo sapiens; for inhibition at 0.1 µM: A549, 3 h, single point, 100 nM compound, 3 hrs; for IC50: HTRF pERK
Method: as §2

KRas^G12D = biological target: T2, KRas^G12D (Homo sapiens, UniProt P01116, G12D); experiment: KRas binding assay (TR-FRET tracer displacement), KRas G12D
T2 construct: Biotinylated KRas (corresponding to amino acids 1-169, produced at Accelegan Inc.); biotin (biotinylated); purchased Accelegan Inc

[4] = tested on: KRas-mediated phosphorylation of ERK in AsPC-1 cells; experiment: Inhibition of KRas-mediated phosphorylation of ERK (Cisbio HTRF pERK), AsPC-1 cells; assay type: cell-based; conditions: Homo sapiens; for IC50: ASPC1, AsPC-1 cells, HTRF pERK; for inhibition at 0.1 µM: ASPC1, 3 h, single point, 100 nM compound, 3 hrs, AsPC-1 cells
Outline: as §1

KRas^G12V = biological target: T3, KRas^G12V (Homo sapiens, UniProt P01116, G12V); experiment: KRas binding assay (TR-FRET tracer displacement), KRas G12V
T3 construct: Biotinylated KRas (corresponding to amino acids 1-169, produced at Accelegan Inc.); biotin (biotinylated); purchased Accelegan Inc

[5] = tested on: KRas-mediated phosphorylation of ERK in H460 cells; experiment: Inhibition of KRas-mediated phosphorylation of ERK (Cisbio HTRF pERK), H460 cells; assay type: cell-based; conditions: Homo sapiens; for inhibition at 0.1 µM: NCI-H460, 3 h, single point, 100 nM compound, 3 hrs; for IC50: NCI-H460, HTRF pERK
Method: as §2

[6] = tested on: KRas-mediated phosphorylation of ERK in HCT116 cells; experiment: Inhibition of KRas-mediated phosphorylation of ERK (Cisbio HTRF pERK), HCT116 cells; assay type: cell-based; conditions: Homo sapiens; for inhibition at 0.1 µM: HCT-116, 3 h, single point, 100 nM compound, 3 hrs; for IC50: HCT-116, HTRF pERK
Method: as §2

T3 sequence (P01116 1-169 isoform P01116-2 G12V): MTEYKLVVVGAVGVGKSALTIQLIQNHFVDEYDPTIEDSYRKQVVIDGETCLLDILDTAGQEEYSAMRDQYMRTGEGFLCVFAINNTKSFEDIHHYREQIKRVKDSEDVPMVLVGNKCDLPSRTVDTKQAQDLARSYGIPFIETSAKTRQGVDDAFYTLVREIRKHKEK
T1 sequence (P01116 1-169 isoform P01116-2 G12R): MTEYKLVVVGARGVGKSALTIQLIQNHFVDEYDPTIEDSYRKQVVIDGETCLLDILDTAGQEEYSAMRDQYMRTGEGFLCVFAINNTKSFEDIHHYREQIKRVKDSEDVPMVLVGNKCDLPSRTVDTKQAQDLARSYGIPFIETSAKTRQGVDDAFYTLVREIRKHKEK
T2 sequence (P01116 1-169 isoform P01116-2 G12D): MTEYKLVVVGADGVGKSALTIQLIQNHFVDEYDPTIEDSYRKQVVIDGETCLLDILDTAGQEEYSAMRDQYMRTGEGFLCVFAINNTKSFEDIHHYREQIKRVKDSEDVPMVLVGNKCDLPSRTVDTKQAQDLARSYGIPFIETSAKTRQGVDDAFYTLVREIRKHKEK

IC50 [1] [nM] | IC50 (KRas^G12R) [nM] | IC50 (KRas^G12D) [nM] | IC50 [4] [nM] | IC50 (KRas^G12V) [nM] | IC50 [2] [nM] | IC50 [3] [nM] | IC50 [5] [nM] | IC50 [6] [nM] | Structure (SMILES) | inhibition at 0.1 µM [2] [%] | inhibition at 0.1 µM [3] [%] | inhibition at 0.1 µM [5] [%] | inhibition at 0.1 µM [6] [%] | inhibition at 0.1 µM [1] [%] | inhibition at 0.1 µM [4] [%]
208 | 8 | 7 | 328 | 4 | – | – | – | – | CCc1c(F)ccc2cc(O)cc(-c3ncc4c(N5CCCC6(CCC6)C5)nc(OC[C@@]56CCCN5C[C@H](F)C6)nc4c3F)c12 [Example 549, 5-ethyl-6-fluoro-4-(8-fluoro-2-(((2R,7aS)-2-fluorotetrahydro-1H-pyrrolizin-7a(5H)-yl)methoxy)-4-(6-azaspiro[3.5]nonan-6-yl)pyrido[4,3-d]pyrimidin-7-yl)naphthalen-2-ol] | 3 | -6 | – | – | – | –
15 | – | – | 12 | – | – | – | – | – | CCc1c(F)ccc2cc(O)cc(-c3ncc4c(N5CCOCC6(CCO6)C5)nc(OC[C@@]56CCCN5C[C@H](F)C6)nc4c3F)c12 (stereo partly drawn) [Example 573, 5-ethyl-6-fluoro-4-(8-fluoro-2-(((2R,7aS)-2-fluorotetrahydro-1H-pyrrolizin-7a(5H)-yl)methoxy)-4-(1,6-dioxa-9-azaspiro[3.6]decan-9-yl)pyrido[4,3-d]pyrimidin-7-yl)naphthalen-2-ol] | 94 | 62 | 92 | 53 | – | –
> 10000 | – | – | 8480 | – | – | – | – | – | CCc1c(F)ccc2cc(O)cc(-c3ncc4c(N5CCn6cc(C(=O)N(C)C)nc6C5)nc(OC[C@@]56CCCN5C[C@H](F)C6)nc4c3F)c12 [Example 646, 7-(7-(8-ethyl-7-fluoro-3-hydroxynaphthalen-1-yl)-8-fluoro-2-(((2R,7aS)-2-fluorohexahydro-1H-pyrrolizin-7a-yl)methoxy)pyrido[4,3-d]pyrimidin-4-yl)-N,N-dimethyl-5,6,7,8-tetrahydroimidazo[1,2-a]pyrazine-2-carboxamide] | 2 | -24 | -9 | -9 | -6 | -12
> 10000 | 2 | 2 | 8030 | 7 | – | – | – | – | CCc1c(F)ccc2cc(O)cc(-c3ncc4c(N5CCCn6nc(P(C)(C)=O)cc6C5)nc(OC[C@@]56CCCN5C[C@H](F)C6)nc4c3F)c12 [Example 660, (5-(7-(8-ethyl-7-fluoro-3-hydroxynaphthalen-1-yl)-8-fluoro-2-(((2R,7aS)-2-fluorohexahydro-1H-pyrrolizin-7a-yl)methoxy)pyrido[4,3-d]pyrimidin-4-yl)-5,6,7,8-tetrahydro-4H-pyrazolo[1,5-a][1,4]diazepin-2-yl)dimethylphosphine oxide] | -20 | -41 | – | – | – | –
21 | – | – | 115 | – | – | – | – | – | CCNC(=O)c1cc2n(n1)CCCCN(c1nc(OC[C@@]34CCCN3C[C@H](F)C4)nc3c(F)c(-c4cc(O)cc5ccc(F)c(CC)c45)ncc13)C2 [Example 673, N-ethyl-5-(7-(8-ethyl-7-fluoro-3-hydroxynaphthalen-1-yl)-8-fluoro-2-(((2R,7aS)-2-fluorotetrahydro-1H-pyrrolizin-7a(5H)-yl)methoxy)pyrido[4,3-d]pyrimidin-4-yl)-4,5,6,7,8,9-hexahydropyrazolo[1,5-a][1,4]diazocine-2-carboxamide] | 88 | 43 | 8 | 16 | 53 | 8
1210 | – | – | 328 | – | 197 | 581 | 318 | 636 | CCc1c(F)ccc2cc3[nH]ncc3c(-c3ncc4c(N5CCCC6(CNS(=O)(=O)N6)C5)nc(OC[C@@]56CCCN5C[C@H](F)C6)nc4c3F)c12 (some centres unmarked) [Example 872] | – | – | – | – | – | –
> 10000 | – | – | > 10000 | – | > 10000 | > 10000 | > 10000 | > 10000 | CCc1c(F)ccc2cc(O)cc(-c3ncc4c(N5CC6CNCC6C5CO)nc(OC[C@@]56CCCN5C[C@H](F)C6)nc4c3F)c12 (stereo partly drawn) [Example 890, 5-ethyl-6-fluoro-4-(8-fluoro-2-(((2R,7aS)-2-fluorotetrahydro-1H-pyrrolizin-7a(5H)-yl)methoxy)-4-(1-(hydroxymethyl)hexahydropyrrolo[3,4-c]pyrrol-2 (1H)-yl)pyrido[4,3-d]pyrimidin-7-yl)naphthalen-2-ol] | – | – | – | – | – | –
2 | – | – | 6 | – | 1 | 1 | – | – | C=C1CN2CCC[C@@]2(COc2nc(N3C[C@@H]4C[C@H](C3)[C@H](O)C4)c3cnc(-c4cc(O)cc5ccc(F)c(CC)c45)c(F)c3n2)C1 [Example 896, (1R,5R,6R)-3-(7-(8-ethyl-7-fluoro-3-hydroxynaphthalen-1-yl)-8-fluoro-2-(((S)-2-methylenetetrahydro-1H-pyrrolizin-7a(5H)-yl)methoxy)pyrido[4,3-d]pyrimidin-4-yl)-3-azabicyclo[3.2.1]octan-6-ol] | – | – | – | – | – | –
12 | – | – | 32 | – | 3 | 5 | – | – | C=C1CN2CCC[C@]2(COc2nc(N3C[C@@H]4C[C@H](C3)[C@H](O)C4)c3cnc(-c4cc(O)cc5ccc(F)c(CC)c45)c(F)c3n2)C1 [Example 897, (1R,5R,6R)-3-(7-(8-ethyl-7-fluoro-3-hydroxynaphthalen-1-yl)-8-fluoro-2-(((R)-2-methylenetetrahydro-1H-pyrrolizin-7a(5H)-yl)methoxy)pyrido[4,3-d]pyrimidin-4-yl)-3-azabicyclo[3.2.1]octan-6-ol] | – | – | – | – | – | –
571 | – | – | 580 | – | 146 | 246 | 112 | 211 | CCc1c(F)ccc2cc(O)cc(-c3ncc4c(N5CC6CCC(CCC(=O)N(C)C)(C6)C5)nc(OC[C@@]56CCCN5C[C@H](F)C6)nc4c3F)c12 (stereo partly drawn) [Example 913, 3-(3-(7-(8-ethyl-7-fluoro-3-hydroxynaphthalen-1-yl)-8-fluoro-2-(((2R,7aS)-2-fluorotetrahydro-1H-pyrrolizin-7a(5H)-yl)methoxy)pyrido[4,3-d]pyrimidin-4-yl)-3-azabicyclo[3.2.1]octan-1-yl)-N,N-dimethylpropanamide] | – | – | – | – | – | –
1040 | 5 | 12 | 2380 | 3 | 461 | – | – | – | CCc1c(F)ccc2cc(O)cc(-c3ncc4c(N5CC6CCC(CC(=O)NC)(C6)C5)nc(OC[C@@]56CCCN5C[C@H](F)C6)nc4c3F)c12 (stereo partly drawn) [Example 914, 2-(3-(7-(8-ethyl-7-fluoro-3-hydroxynaphthalen-1-yl)-8-fluoro-2-(((2R,7aS)-2-fluorotetrahydro-1H-pyrrolizin-7a(5H)-yl)methoxy)pyrido[4,3-d]pyrimidin-4-yl)-3-azabicyclo[3.2.1]octan-1-yl)-N-methylacetamide] | – | – | – | – | – | –
> 10000 | 132 | 78 | > 10000 | 120 | 8970 | – | – | – | C[C@@]1(O)CCCN(c2nc(OCC34CCCN3CCC4)nc3c(F)c(-c4ccc(F)c5sc(N)c(C#N)c45)ncc23)C1 [Example 916, (R)-2-amino-7-fluoro-4-(8-fluoro-4-(3-hydroxy-3-methylpiperidin-1-yl)-2-((tetrahydro-1H-pyrrolizin-7a(5H)-yl)methoxy)pyrido[4,3-d]pyrimidin-7-yl)benzo[b]thiophene-3-carbonitrile] | – | – | – | – | – | –
